Ten compounds from ChEMBL document CHEMBL1201862, “PubChem BioAssay data set” (2004) can be followed below.

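Method: 48-hour compound exposure of cells in 96-well plates, five concentrations, linear interpolation of endpoints. GI50 is the concentration that inhibits growth by half.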 Active and inactive are the calls of the source. Rule as the data show it: active = GI50 up to about 1.1 µM and inactive = higher.

Some test systems named below: CAKI-1; COLO 205; HCC 2998; HOP-92; LOX IMVI; MDA-MB-231; MOLT-4; NCI-H226; NCI-H23; NCI-H522; NCI/ADR-RES; PC-3; RXF 393; SF-539; SK-OV-3; HT-29; OVCAR-5; Hs-578T.
Test in all cases: NCI anticancer screen, dose series, 48 h

On to `O=NNc1cnc(O)nc1O`, for which the GI50 in the assay with CAKI-1, in the assay with COLO 205, in the assay on HCC 2998, in the assay on HOP-92, with LOX IMVI and with MDA-MB-231 was > 100 µM (inactive) throughout. Moreover, the GI50 in the assay with MOLT-4, with NCI-H226, with NCI-H23, in the assay with NCI-H522, in the assay on NCI/ADR-RES and in the assay on PC-3 was > 100 µM (inactive) in each case. The GI50 in the assay with RXF 393, in the assay with SF-539 and in the assay with SK-OV-3 was > 100 µM (inactive) throughout.

For the compound `CCC1C2C=CC(CC2)N1S(=O)(=O)c1ccc(C)cc1` (stereo not given), the GI50 was 20.8 µM (inactive) in the assay on CAKI-1; 21.7 µM (inactive) in the assay on COLO 205; 24.4 µM (inactive) in the assay with HT-29; 15.8 µM (inactive) in the assay with LOX IMVI; 32.6 µM (inactive) in the assay with MOLT-4; 0.283 µM (active) in the assay with NCI-H226. The GI50 with NCI-H522 is 20.8 µM (inactive); with OVCAR-5, 22.3 µM (inactive); with SF-539, 20.7 µM (inactive); in the assay on SK-OV-3 it was 26.1 µM (inactive).

Turning to `COc1cc(OC)c(OC)cc1/C=C/c1cc[n+](C)c2ccccc12`, the GI50 in the assay on CAKI-1 is > 100 µM (inactive); with COLO 205, 5.96 µM (inactive); in the assay on HCC 2998, 52.6 µM (inactive); in the assay on HOP-92, 23.9 µM (inactive); with HT-29, 30.5 µM (inactive); in the assay on MOLT-4, 21.2 µM (inactive). Moreover, the GI50 with NCI-H23 was 12.1 µM (inactive); with NCI/ADR-RES, > 100 µM (inactive); with OVCAR-5, > 100 µM (inactive); with PC-3 it was 20.7 µM (inactive); in the assay with RXF 393, 53.1 µM (inactive); in the assay on SK-OV-3 it was 52.2 µM (inactive).

With `c1ncn(C23C4C5C6C4C2C6C53)n1` (stereo not given), the GI50 in the assay on COLO 205, with HCC 2998, with HT-29, in the assay on Hs-578T, with LOX IMVI and in the assay with MDA-MB-231 was > 100 µM (inactive) in each case. Also, the GI50 with MOLT-4, in the assay on NCI-H226, in the assay on NCI-H23, in the assay on NCI-H522, in the assay on NCI/ADR-RES and in the assay with OVCAR-5 was > 100 µM (inactive) throughout. In addition, the GI50 in the assay with PC-3, in the assay with SF-539 and in the assay with SK-OV-3 was > 100 µM (inactive) each time.

Take `Cc1ccc(/C=C/C(=O)C(C)(C)CN2CCCCC2)cc1`: the GI50 is 3.78 µM (inactive) with CAKI-1; 3.66 µM (inactive) in the assay on COLO 205; 15 µM (inactive) with HCC 2998; 3.24 µM (inactive) in the assay on HT-29; 9.55 µM (inactive) in the assay with LOX IMVI; 2.47 µM (inactive) in the assay on MOLT-4. Also, the GI50 in the assay with NCI-H226 is 13.2 µM (inactive); in the assay with NCI-H23 it was 11.5 µM (inactive); in the assay with NCI-H522 it was 3.33 µM (inactive); in the assay on OVCAR-5, 15.2 µM (inactive); in the assay on RXF 393, 5.11 µM (inactive); in the assay on SF-539 it was 4.6 µM (inactive). Further, the GI50 with SK-OV-3 was 11 µM (inactive).

As for `COc1ccc(C2c3cc4c(cc3OC(N3CCOCC3)C2C)OCO4)c(OC)c1OC` (stereo not given), the GI50 in the assay with CAKI-1 was 2.51 µM (inactive); in the assay on COLO 205, 14.6 µM (inactive); with HCC 2998 it was 10.8 µM (inactive); in the assay on HT-29 it was 14 µM (inactive); with Hs-578T, 2.88 µM (inactive); with LOX IMVI, 14.5 µM (inactive). Besides, the GI50 was 10.6 µM (inactive) in the assay on MOLT-4; 33.7 µM (inactive) in the assay with NCI-H23; 6.89 µM (inactive) with NCI-H522; 12.1 µM (inactive) in the assay on NCI/ADR-RES; 17.1 µM (inactive) with OVCAR-5; 13.6 µM (inactive) in the assay on PC-3. In addition, in the assay with SF-539, the GI50 is 12.6 µM (inactive).

For `CCN(CC)/[N+]([O-])=N/OCC(C)O` (stereo not given), the GI50 in the assay on CAKI-1, in the assay with HCC 2998, in the assay with HOP-92, with HT-29, in the assay with LOX IMVI and in the assay with MOLT-4 was > 100 µM (inactive) in each case. Besides, the GI50 in the assay with NCI-H226, in the assay with NCI-H23, with NCI-H522, with OVCAR-5, in the assay with RXF 393 and in the assay on SF-539 was > 100 µM (inactive) each time. Also, the GI50 in the assay on SK-OV-3 was > 100 µM (inactive).

Regarding `COc1cc(OC)c(OC)cc1/C=N/NC(=O)N/N=C/c1cc(OC)c(OC)cc1OC`, the GI50 in the assay with COLO 205 is > 100 µM (inactive); in the assay on HOP-92, 49.9 µM (inactive); in the assay with HT-29 it was > 100 µM (inactive); in the assay on LOX IMVI, > 100 µM (inactive); with MOLT-4 it was > 100 µM (inactive); in the assay on NCI-H226 it was > 100 µM (inactive). Also, the GI50 with NCI-H23 is > 100 µM (inactive); in the assay with NCI-H522, 17.5 µM (inactive); in the assay on OVCAR-5, > 100 µM (inactive); with SF-539, 33.6 µM (inactive); in the assay with SK-OV-3, > 100 µM (inactive).

`CC(=O)OCCn1cnc2c(NCC=C(C)C)ncnc21`: the GI50 in the assay on CAKI-1, in the assay on COLO 205, in the assay with HOP-92, in the assay on HT-29, in the assay on Hs-578T and in the assay with LOX IMVI was > 100 µM (inactive) throughout. Also, the GI50 with MDA-MB-231, in the assay with MOLT-4, with NCI-H226, in the assay on NCI-H23, with NCI-H522 and in the assay on NCI/ADR-RES was > 100 µM (inactive) throughout. The GI50 in the assay on OVCAR-5, in the assay on PC-3, in the assay on RXF 393, in the assay on SF-539 and with SK-OV-3 was > 100 µM (inactive) in each case.

Regarding `Cc1cn(CCCCC2=NCCCN2)c(=O)[nH]c1=O`, the GI50 in the assay with CAKI-1 is > 15.1 µM (inactive); in the assay on COLO 205, > 31.1 µM (inactive); with HCC 2998 it was > 26.3 µM (inactive); in the assay on HOP-92, 3.66 µM (inactive); with Hs-578T, > 34.4 µM (inactive); in the assay on LOX IMVI, > 25.6 µM (inactive). Besides, the GI50 is > 29.4 µM (inactive) in the assay on MDA-MB-231; > 26.7 µM (inactive) in the assay on MOLT-4; > 57.7 µM (inactive) with NCI-H226; > 31.2 µM (inactive) in the assay on NCI-H23; > 30.8 µM (inactive) with NCI-H522; > 34.8 µM (inactive) in the assay with NCI/ADR-RES. Also, the GI50 was > 30.3 µM (inactive) in the assay on OVCAR-5, > 26.7 µM (inactive) with PC-3, 25.8 µM (inactive) in the assay on RXF 393 and > 29.6 µM (inactive) in the assay on SK-OV-3.
